In patent publication US6683076B2, “Methods for therapeutic use of glucosylceramide synthesis inhibitors and composition thereof” (Oxford Glyco-Sciences (UK) Ltd, priority 2000, dated 2004):
Read-outs that look alike come from different tables or passages of the source. Marks after values point to notes of the source that are not given here.

Key:
[1] = assay type: in vivo; conditions: for Weight: NPC-affected cat S222, NB-DNJ treated, measured within 10 days before neuronal assessment
[2] = tested on: domestic cat model of Niemann-Pick C; experiment: Feline model of NPC: neurologic and clinical findings; assay type: in vivo; set-up: Front leg Hopping / Rear leg hopping / Vision-Menace: scale not given here; conditions: for Ataxia / Front leg Hopping / Intention tremors / Rear leg hopping / Vision-Menace: NPC-affected cat S222, NB-DNJ treated
Protocol: A breeding colony for this animal model of NPC is being maintained to study the disease and its potential treatments (Brown et al (1996) J. Inherit Metab. Dis. 19:319-330).
From seven feline NPC carrier litter mates, normal and NPC-affected male and female cats were selected for the study. The affected female and unaffected male began treatment with NB-DNJ at 1200 mg/kg/day. […] During a brief recovery period for these animals, an unrelated normal cat was treated to determine the maximum tolerated dose for NB-DNJ in this species. Based on this dose-ranging work, the NPC-affected and unaffected litter mates were restarted with NB-DNJ at 50 mg/kg/day. Over the following weeks, the administration level was increased to 150 mg/kg/day. […] Except for brief intervals when the treatments were withheld because of transient appetite loss, the NB-DNJ dosages were continued for about three months. On this date, the animals were sacrificed for histologic and lipid analyses.
Cat number: S222; Status: NPC-affected, NB-DNJ-treated; […]; […]. […] […] also was noted to have bilateral luxating patellas at about the same time. […] Over the course of the next 20 weeks, her disease symptoms slowly worsened. However, on several occasions it was noted by the consulting neurologist that her symptoms were less severe than those of S221. […] The following is a tabulation of her neurologic and medical findings:

[3] = target: T1, alpha-glucosidase 1 (Homo sapiens, UniProt Q13724); conditions: cited from earlier work
T1 sequence (Q13724 1-837): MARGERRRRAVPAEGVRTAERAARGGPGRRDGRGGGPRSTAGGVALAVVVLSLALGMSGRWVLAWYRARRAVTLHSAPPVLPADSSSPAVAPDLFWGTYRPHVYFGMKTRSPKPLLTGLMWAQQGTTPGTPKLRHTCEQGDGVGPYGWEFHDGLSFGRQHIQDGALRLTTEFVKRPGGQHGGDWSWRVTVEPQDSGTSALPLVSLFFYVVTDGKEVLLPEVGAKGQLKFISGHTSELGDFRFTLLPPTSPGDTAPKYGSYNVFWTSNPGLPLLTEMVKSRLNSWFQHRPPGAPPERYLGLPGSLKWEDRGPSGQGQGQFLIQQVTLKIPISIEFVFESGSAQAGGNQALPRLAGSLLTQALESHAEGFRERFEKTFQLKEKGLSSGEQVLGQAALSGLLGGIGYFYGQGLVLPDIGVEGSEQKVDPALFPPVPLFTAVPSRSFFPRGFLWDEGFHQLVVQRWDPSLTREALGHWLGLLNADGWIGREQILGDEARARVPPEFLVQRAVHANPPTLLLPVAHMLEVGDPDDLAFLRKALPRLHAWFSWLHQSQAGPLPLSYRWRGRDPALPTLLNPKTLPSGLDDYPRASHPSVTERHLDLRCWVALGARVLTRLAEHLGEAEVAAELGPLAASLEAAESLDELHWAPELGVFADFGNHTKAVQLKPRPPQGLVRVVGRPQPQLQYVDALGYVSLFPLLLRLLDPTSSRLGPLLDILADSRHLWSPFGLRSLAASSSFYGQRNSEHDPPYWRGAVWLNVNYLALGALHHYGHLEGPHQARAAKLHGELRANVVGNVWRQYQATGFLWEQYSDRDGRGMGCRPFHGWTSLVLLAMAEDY

[4] = tested on: glucosylceramide synthesis; conditions: cells treated with NB-DNJ; cited from earlier work
[5] = NPC-affected cat S222, 100 mg/kg/day

In the case of `CCCCN1C[C@H](O)[C@@H](O)[C@H](O)[C@H]1CO` [NB-DNJ, N-butyldeoxynojirimycin], the Fur colour [1, 5] is reported as “light-coloured fur effect”, the Tolerability [1, 5] is reported as “reasonably well handled” and the Appetite ([1]; NPC-affected cat S222, 100 mg/kg/day, relative to normal and NPC-affected cats) is reported as “significantly reduced”. For the same compound, the Weight ([1]; Week 6.5) was 522 gms, the Weight ([1]; Week 12.5) was 965 gms and the Weight ([1]; Week 16) was 1265 gms. The Weight ([1]; Week 18.5) was 1390 gms, the Weight ([1]; Week 20.5) was 1453 gms and the Weight ([1]; Week 22.5) was 1469 gms. The Weight ([1]; Week 24.5) was 1495 gms, the Weight ([1]; Week 26.5) was 1525 gms and the Weight ([1]; Week 29) was 1565 gms. For the same compound, the Weight ([1]; Week 30.5) was 1590 gms, the Weight ([1]; Week 32.5) was 1677 gms and the Hepatotoxicity ([1]; NPC-affected cat S222, starting dose 1200 mg/kg/day) was “acutely hepatotoxic”. For the same compound, the Hepatotoxicity ([1]; cats, 150 mg/kg/day) was “hepatotoxic”, the Hepatotoxicity ([1]; cats, 1200 mg/kg/day) was “acutely hepatotoxic” and the “Appetite and overall responsiveness” value ([1]; normal cat S161, 100 mg/kg/day) was “decreased”. The Hair colour ([1]; normal cat S218, 100 mg/kg/day) was “markedly more beige”, the “Serum levels of liver enzymes” value ([1]; normal cat S218, 1200 mg/kg/day) was “dramatic elevation” and the Appetite ([1]; normal cat S218, eventual dosage 100 mg/kg/day) was “significantly less than that of a normal cat”. The Hepatotoxicity ([1]; normal cat S218, starting dose 1200 mg/kg/day) was “acutely hepatotoxic”, the “Weight at the end of the treatment period” value ([1]; normal female cat S218, 100 mg/kg/day, normal female cat expected about 4 kg) was “about 2.4 kg” and the “Severity of disease symptoms versus untreated NPC cat S221” value ([2]; NPC-affected cat S222, 100 mg/kg/day, noted by consulting neurologist) was “less severe”. The Ataxia ([2]; Week 6.5) was “none”, the “Front leg Hopping” value ([2]; Week 6.5) was 2 and the Intention tremors ([2]; Week 6.5) was “none”. For the same compound, the Rear leg hopping ([2]; Week 6.5) was 2, the Vision-Menace ([2]; Week 6.5) was 2 and the Ataxia ([2]; Week 12.5) was “none”. For the same compound, the “Front leg Hopping” value ([2]; Week 12.5) was 2, the Intention tremors ([2]; Week 12.5) was “mild” and the Vision-Menace ([2]; Week 12.5) was 1. For the same compound, the Rear leg hopping ([2]; Week 12.5, diagnosed with bilateral luxating patellas) was 2^†, the Ataxia ([2]; Week 16) was “none” and the “Front leg Hopping” value ([2]; Week 16) was 2. For the same compound, the Intention tremors ([2]; Week 16) was “mild”, the Rear leg hopping ([2]; Week 16) was 2 and the Vision-Menace ([2]; Week 16) was 1. For the same compound, the Ataxia ([2]; Week 18.5) was “none”, the “Front leg Hopping” value ([2]; Week 18.5) was 2 and the Intention tremors ([2]; Week 18.5) was “mild”. The Rear leg hopping ([2]; Week 18.5) was 1.5, the Vision-Menace ([2]; Week 18.5) was 1.5 and the Ataxia ([2]; Week 20.5) was “none”. For the same compound, the “Front leg Hopping” value ([2]; Week 20.5) was 2, the Intention tremors ([2]; Week 20.5) was “mod” and the Rear leg hopping ([2]; Week 20.5) was 2. The Vision-Menace ([2]; Week 20.5) was “.5”, the Ataxia ([2]; Week 22.5) was “none” and the “Front leg Hopping” value ([2]; Week 22.5) was 1.5. The Intention tremors ([2]; Week 22.5) was “mild”, the Rear leg hopping ([2]; Week 22.5) was 1.5 and the Vision-Menace ([2]; Week 22.5) was 1. The Ataxia ([2]; Week 24.5) was “none”, the “Front leg Hopping” value ([2]; Week 24.5) was 2 and the Intention tremors ([2]; Week 24.5) was “mod”. For the same compound, the Rear leg hopping ([2]; Week 24.5) was 2, the Vision-Menace ([2]; Week 24.5) was 1 and the Ataxia ([2]; Week 26.5) was “none”. The “Front leg Hopping” value ([2]; Week 26.5) was 2, the Intention tremors ([2]; Week 26.5) was “mild” and the Rear leg hopping ([2]; Week 26.5) was 1.5. For the same compound, the Vision-Menace ([2]; Week 26.5) was 1, the Ataxia ([2]; Week 29) was “mod” and the “Front leg Hopping” value ([2]; Week 29) was 2. For the same compound, the Intention tremors ([2]; Week 29) was “mod”, the Rear leg hopping ([2]; Week 29) was 1 and the Vision-Menace ([2]; Week 29) was 1. For the same compound, the Ataxia ([2]; Week 30.5) was “mild”, the Intention tremors ([2]; Week 30.5) was “mod” and the Vision-Menace ([2]; Week 30.5) was 1. For the same compound, the Ataxia ([2]; Week 32.5) was “mod”, the “Front leg Hopping” value ([2]; Week 32.5) was 1 and the Intention tremors ([2]; Week 32.5) was “mod”. The Rear leg hopping ([2]; Week 32.5) was 1, the Vision-Menace ([2]; Week 32.5) was 0.5 and the “Symptoms of neurologic degeneration typical for NPC” value ([2]; cats, NB-DNJ treatment) was “qualitatively delays”. The “Inhibition of alpha-glucosidase 1” value [3] was “potent inhibitor” and the Glucosylceramide levels [4] was “markedly reduced”.
